Laboratory results from the NIST ThermoML archive (doi:10.1016/j.jct.2011.04.023).
± gives the expanded uncertainty stated by the source.

Legend:
[1] = Crystal; visual observation
[2] = Molar enthalpy of transition or fusion; conditions: Crystal; DSC

CCCCCC[n+]1cccc(C)c1.Cc1ccc(S(=O)(=O)[O-])cc1 [1-hexyl-3-methylpyridinium 4-methylbenzenesulfonate]
Normal melting temperature [1]: 56.2 ± 0.4 °C
Molar enthalpy of transition or fusion [2]: 2.41 ± 0.0813 kcal/mol
